Common to all, as to assay type: biochemical
One assay concerns the target Pim1 kinase (Homo sapiens, UniProt P11309). The assay is described as follows: Pim1 ATP depletion assay.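 Also: Luciferase-luciferin luminescence readout of residual ATP after PIM1 transfers phosphate to a peptide substrate, 40 µM ATP added, reaction run to roughly half ATP consumption.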
A further assay concerns the target Pim2 kinase (Homo sapiens, UniProt Q9P1W9). As to the kind of experiment: Pim2 ATP depletion assay.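 Also: Luciferase-based luminescent readout of ATP remaining after PIM2 phosphorylates a BAD peptide, final 5 nM enzyme, 4 µM ATP, 10 µM peptide, 2.5% DMSO, run to roughly half ATP consumption.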 Conditions: read-out: IC50 (μM) PIM2.
The next assay has as its target Pim3 kinase (Homo sapiens, UniProt Q86V86). The assay is described as follows: Pim3 ATP depletion assay. As to conditions: read-out: IC50 (μM) PIM3.
Setting [1] is: Pim1 ATP depletion assay, read-out: IC50 (μM) PIM1.

Molecules are shown by their SMILES. Read-outs that look alike come from different tables or passages of the source.

Sequence of Pim1 kinase (P11309 whole entry): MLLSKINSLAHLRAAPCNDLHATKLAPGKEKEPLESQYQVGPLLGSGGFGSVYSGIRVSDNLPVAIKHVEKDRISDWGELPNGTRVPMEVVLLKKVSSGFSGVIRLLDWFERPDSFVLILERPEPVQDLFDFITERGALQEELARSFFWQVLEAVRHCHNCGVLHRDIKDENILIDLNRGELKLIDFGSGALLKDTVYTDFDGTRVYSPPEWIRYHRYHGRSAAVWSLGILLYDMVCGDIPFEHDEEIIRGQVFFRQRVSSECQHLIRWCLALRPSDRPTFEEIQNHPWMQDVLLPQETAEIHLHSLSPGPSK
Sequence of Pim2 kinase (Q9P1W9 whole entry): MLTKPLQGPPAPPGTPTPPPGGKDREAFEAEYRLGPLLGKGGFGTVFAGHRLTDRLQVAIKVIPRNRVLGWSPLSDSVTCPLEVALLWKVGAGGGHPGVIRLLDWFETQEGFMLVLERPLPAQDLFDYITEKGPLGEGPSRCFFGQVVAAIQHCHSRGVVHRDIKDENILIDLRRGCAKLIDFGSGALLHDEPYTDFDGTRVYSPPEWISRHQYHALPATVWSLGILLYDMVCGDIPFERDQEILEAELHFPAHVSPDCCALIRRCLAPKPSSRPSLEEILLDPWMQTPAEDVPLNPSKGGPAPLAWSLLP

A word on the IC50: it is the concentration that gives 50% inhibition. On to `Nc1ccc(-c2c(F)cccc2F)nc1C(=O)Nc1cnccc1N1C[C@@H](N)C[C@H](O)C1` [Example 297, 3-Amino-6-(2,6-difluoro-phenyl)-pyridine-2-carboxylic acid (3-amino-5-hydroxy-3,4,5,6-tetrahydro-2H-[1,4′]bipyridinyl-3′-yl)-amide], for which the IC50 at Pim1 kinase (setting [1]), at Pim2 kinase and on Pim3 kinase was below 1 µM throughout.
Consider `COC1CCN(c2ccncc2NC(=O)c2nc(-c3cc(C(=O)NC(C)C)ccc3F)ccc2N)CC1N` (stereo not drawn) [Example 299, 3-Amino-6-(2-fluoro-5-isopropylcarbamoyl-phenyl)-pyridine-2-carboxylic acid (3-amino-4-methoxy-3,4,5,6-tetra-hydro-2H-[1,4′]bipyridinyl-3′-yl)-amide], for which the IC50 at Pim1 kinase (setting [1]), at Pim2 kinase and on Pim3 kinase was below 1 µM throughout.
With `COC1CCN(c2ccncc2NC(=O)c2nc(-c3c(F)cccc3F)ccc2N)CC1N` (stereo not drawn) [Example 301, 3-Amino-6-(2,6-difluoro-phenyl)-pyridine-2-carboxylic acid (3-amino-4-methoxy-3,4,5,6-tetrahydro-2H-[1,4′]bi-pyridinyl-3′-yl)-amide], the IC50 at Pim1 kinase (setting [1]), on Pim2 kinase and at Pim3 kinase was below 1 µM in each case.
For the compound `Nc1ccc(-c2c(F)cccc2F)nc1C(=O)Nc1cnccc1N1CC[C@H]2OC(=O)N[C@H]2C1` [Example 302, 3-Amino-6-(2,6-difluoro-phenyl)-pyridine-2-carboxylic acid [4-(2-oxo-hexahydro-oxazolo[4,5-c]pyridin-5-yl)-pyridin-3-yl]-amide], the IC50 at Pim1 kinase (setting [1]), at Pim2 kinase and at Pim3 kinase was below 1 µM in each case.
In the case of `Nc1ccc(-c2c(F)cccc2F)nc1C(=O)Nc1cnccc1N1CC[C@@H]2OC(=O)N[C@@H]2C1` [Example 303, 3-Amino-6-(2,6-difluoro-phenyl)-pyridine-2-carboxylic acid [4-(2-oxo-hexahydro-oxazolo[4,5-c]pyridin-5-yl)-pyridin-3-yl]-amide], the IC50 on Pim1 kinase (setting [1]), on Pim2 kinase and on Pim3 kinase was below 1 µM in each case.
For `Cc1ccc(S(=O)(=O)N2CCCCC2)cc1-c1ccc(N)c(C(=O)Nc2cnccc2N2CCC[C@H](N)C2)n1` [Example 318, 3-amino-6-[2-methyl-5-(piperidine-1-sulfonyl)-phenyl]-pyridine-2-carboxylic acid ((S)-3-amino-3,4,5,6-tetrahydro-2H-[1,4′]bi-pyridinyl-3′-yl)-amide], the IC50 at Pim1 kinase (setting [1]), at Pim2 kinase and on Pim3 kinase was below 1 µM each time.
As to `Nc1ccc(-c2ccccc2C(F)(F)F)nc1C(=O)Nc1cnccc1N1CCC[C@H](N)C1` [Example 336], the IC50 on Pim1 kinase, on Pim2 kinase and at Pim3 kinase was below 1 µM throughout.
In the case of `Cc1ccccc1-c1ccc(N)c(C(=O)Nc2cnccc2N2CCC[C@H](N)C2)n1` [Example 338, 3-amino-6-o-tolyl-pyridine-2-carboxylic acid ((S)-3-amino-3,4,5,6-tetrahydro-2H-[1,4′]bi-pyridinyl-3′-yl)-amide], the IC50 on Pim1 kinase (setting [1]), at Pim2 kinase and on Pim3 kinase was below 1 µM throughout.
Turning to `Nc1ncc(-c2cccc(C(=O)N3CCOCC3)c2)nc1C(=O)Nc1ccccc1N1CCNCC1` [Example 398, 3-amino-6-[3-(morpholine-4-carbonyl)-phenyl]-pyrazine-2-carboxylic acid (2-piperazin-1-yl-phenyl)-amide], the IC50 at Pim1 kinase (setting [1]) is 1 to 10 µM; on Pim2 kinase it was 10 to 25 µM; at Pim3 kinase, 1 to 10 µM.
Consider `Nc1ccc(-c2cncnc2)nc1C(=O)Nc1cnccc1N1CCC[C@H](N)C1` [Example 407, 3-amino-6-pyrimidin-5-yl-pyridine-2-carboxylic acid ((S)-3-amino-3,4,5,6-tetrahydro-2H-[1,4′]bipyridinyl-3′-yl)-amide], for which the IC50 at Pim1 kinase (setting [1]), at Pim2 kinase and on Pim3 kinase was below 1 µM throughout.
`Nc1ccc(-c2ccc(F)nc2N)nc1C(=O)Nc1cnccc1N1CCC[C@H](N)C1` [Example 408, 5,2′-diamino-6′-fluoro-[2,3′]bi-pyridinyl-6-carboxylic acid ((S)-3-amino-3,4,5,6-tetrahydro-2H-[1,4′]bipyridinyl-3′-yl)-amide]: the IC50 at Pim1 kinase (setting [1]), on Pim2 kinase and on Pim3 kinase was below 1 µM throughout.
For `Cc1nc(N)ncc1-c1ccc(N)c(C(=O)Nc2cnccc2N2CCC[C@H](N)C2)n1` [Example 409, 3-amino-6-(2-amino-4-methyl-pyrimidin-5-yl)-pyridine-2-carboxylic acid ((S)-3-amino-3,4,5,6-tetrahydro-2H-[1,4′]bi-pyridinyl-3′-yl)-amide], the IC50 at Pim1 kinase (setting [1]), at Pim2 kinase and at Pim3 kinase was below 1 µM in each case.
As for `COc1cc(-c2ccc(N)c(C(=O)Nc3cnccc3N3CCC[C@H](N)C3)n2)cnc1N` [Example 416, 5,6′-diamino-5′-methoxy-[2,3′]bi-pyridinyl-6-carboxylic acid ((S)-3-amino-3,4,5,6-tetrahydro-2H-[1,4′]bipyridinyl-3′-yl)-amide], the IC50 at Pim1 kinase (setting [1]), on Pim2 kinase and at Pim3 kinase was below 1 µM in each case.
Regarding `Nc1ncc(-c2ccc(N)c(C(=O)Nc3cnccc3N3CCC[C@H](N)C3)n2)c(N)n1` [Example 417, 3-amino-6-(2,4-diamino-pyrimidin-5-yl)-pyridine-2-carboxylic acid ((S)-3-amino-3,4,5,6-tetrahydro-2H-[1,4′]bi-pyridinyl-3′-yl)-amide], the IC50 on Pim1 kinase (setting [1]), at Pim2 kinase and on Pim3 kinase was below 1 µM throughout.
`Nc1ccc(-c2ccc(Cl)cc2F)nc1C(=O)Nc1cnccc1N1CCC[C@H](N)C1` [Example 420, 3-amino-6-(4-chloro-2-fluoro-phenyl)-pyridine-2-carboxylic acid ((S)-3-amino-3,4,5,6-tetra-hydro-2H-[1,4′]bipyridinyl-3′-yl)-amide]: the IC50 at Pim1 kinase (setting [1]), at Pim2 kinase and on Pim3 kinase was below 1 µM in each case.
`N[C@H]1CCCN(c2ccncc2NC(=O)c2ccc(F)c(-c3ccccc3F)n2)C1` [Example 444, 5-Fluoro-6-(2-fluoro-phenyl)-pyridine-2-carboxylic acid (3-amino-3,4,5,6-tetrahydro-2H-[1,4′]bipyridinyl-3′-yl)-amide]: the IC50 at Pim1 kinase (setting [1]), at Pim2 kinase and at Pim3 kinase was below 1 µM each time.
Consider `Nc1ccc(-c2ccc(-c3cccs3)s2)nc1C(=O)Nc1cnccc1N1CCC[C@H](N)C1` [Example 446, 3-Amino-6-[2,2′]bithiophenyl-5-yl-pyridine-2-carboxylic acid (3-amino-3,4,5,6-tetrahydro-2H-[1,4′]bipyridinyl-3′-yl)-amide], for which the IC50 on Pim1 kinase (setting [1]), at Pim2 kinase and at Pim3 kinase was below 1 µM each time.
As for `Cc1ccsc1-c1ccc(N)c(C(=O)Nc2cnccc2N2CCC[C@H](N)C2)n1` [Example 448, 3-Amino-6-(3-methyl-thiophen-2-yl)-pyridine-2-carboxylic acid (3-amino-3,4,5,6-tetrahydro-2H-[1,4′]bipyridinyl-3′-yl)-amide], the IC50 on Pim1 kinase (setting [1]), at Pim2 kinase and on Pim3 kinase was below 1 µM each time.
For the compound `Nc1ccc(-c2ccsc2)nc1C(=O)Nc1cnccc1N1CCC[C@H](N)C1` [Example 449, 3-Amino-6-thiophen-3-yl-pyridine-2-carboxylic acid (3-amino-3,4,5,6-tetrahydro-2H-[1,4′]bipyridinyl-3′-yl)-amide], the IC50 at Pim1 kinase (setting [1]), on Pim2 kinase and at Pim3 kinase was below 1 µM each time.
As to `Nc1ccc(-c2ccc(Cl)s2)nc1C(=O)Nc1cnccc1N1CCC[C@H](N)C1` [Example 450, 3-Amino-6-(5-chloro-thiophen-2-yl)-pyridine-2-carboxylic acid (3-amino-3,4,5,6-tetrahydro-2H-[1,4′]bipyridinyl-3′-yl)-amide], the IC50 on Pim1 kinase (setting [1]), at Pim2 kinase and on Pim3 kinase was below 1 µM in each case.
With `Cc1csc(-c2ccc(N)c(C(=O)Nc3cnccc3N3CCC[C@H](N)C3)n2)c1` [Example 451, 3-Amino-6-(4-methyl-thiophen-2-yl)-pyridine-2-carboxylic acid (3-amino-3,4,5,6-tetrahydro-2H-[1,4′]bipyridinyl-3′-yl)-amide], the IC50 on Pim1 kinase (setting [1]), at Pim2 kinase and at Pim3 kinase was below 1 µM each time.
Regarding `CCc1cccc(-c2ccc(N)c(C(=O)Nc3cnccc3N3CCC[C@H](N)C3)n2)c1` [Example 452, 3-Amino-6-(3-ethyl-phenyl)-pyridine-2-carboxylic acid (3-amino-3,4,5,6-tetrahydro-2H-[1,4′]bipyridinyl-3′-yl)-amide], the IC50 at Pim1 kinase (setting [1]), on Pim2 kinase and at Pim3 kinase was below 1 µM each time.
Turning to `CC(C)NC(=O)c1ccc(F)c(-c2cccc(C(=O)Nc3cnccc3N3CCC[C@H](N)C3)n2)c1` [Example 453, 6-(2-Fluoro-5-isopropylcarbamoyl-phenyl)-pyridine-2-carboxylic acid (3-amino-3,4,5,6-tetrahydro-2H-[1,4′]bipyridinyl-3′-yl)-amide], the IC50 on Pim1 kinase (setting [1]), at Pim2 kinase and at Pim3 kinase was below 1 µM throughout.
Take `CC(C)c1cccc(-c2ccc(N)c(C(=O)Nc3cnccc3N3CCC[C@H](N)C3)n2)c1` [Example 456, 3-Amino-6-(3-isopropyl-phenyl)-pyridine-2-carboxylic acid (3-amino-3,4,5,6-tetrahydro-2H-[1,4′]bipyridinyl-3′-yl)-amide]: the IC50 at Pim1 kinase (setting [1]), on Pim2 kinase and on Pim3 kinase was below 1 µM throughout.

(Values after patent US20140249135A1, “PIM KINASE INHIBITORS AND METHODS OF THEIR USE” (NOVARTIS AG, priority 2007, published 2014).)
